Assay results taken from patent US20250099434A1, “METHODS OF TREATING AMYLOID RELATED BRAIN DISORDERS USING NOVEL COMPOUNDS AND ANTIBODIES” (T3D Therapeutics, Inc., priority 2022, published 2025).

Columns and labels:
[1] = tested on: patients with mild-to-moderate Alzheimer's disease (AD); assay: BOLD fMRI (task-free fMRI) clinical study, baseline vs end of treatment; assay type: in vivo, human
Protocol: The majority were non-Hispanic and of white origin.
T3D Therapeutics completed an exploratory analysis of the Phase 2A non-placebo-controlled feasibility study to assess the therapeutic effects of T3D959 in patients with mild-to-moderate Alzheimer's disease (AD) via task-free functional magnetic resonance imaging (tf-fMRI). A total of 34 subjects participated and were split into 4 groups that took different amounts of T3D959 over the course of the study: 3 mg, 10 mg, 30 mg, and 90 mg. A baseline tf-fMRI scan was obtained prior to treatment and another two weeks after. Sixteen tf-fMRI metrics were calculated at each time point and summarized for each patient group to assess the therapeutic effect of T3D959.
The T3D clinical trial investigated the following metrics: • 1. Goodness of Fit of the subject's default mode network regions compared to those of an elderly control group. • 2. The correlation strength between the hippocampus and precuneus. • 3. The global efficiency calculated from 11 pre-defined default mode network regions. • 4. The global efficiency calculated from 90 pre-defined cerebral regions based on the automated anatomical labeling atlas. • 5. The amplitude of low frequency fluctuations (ALFF) and […] of low frequency fluctuations (fALFF) from the right posterior cingulate cortex (PCC) and precuneus (PreC) in the low frequency oscillations (LFO) range (0.01-0.08 Hz). • 6. The ALFF and fALFF from the left PCC and PreC in the LFO range. • 7. The regional homogeneity (ReHo) in the right PCC and PreC. • 8. The ReHo in the left PCC and PreC. • 9. […] The ALFF and fALFF from the left IPL in the LFO range. • 11. The ReHo in the right IPL • 12. The ReHo in the left IPL.

human PPARα = molecular target: T1, human PPARα (Homo sapiens, UniProt Q07869); assay: Human PPAR activation, transient transfection in CV-1 cells (alpha subtype); assay type: cell-based
T1 construct: expressed in transfected cells; host or cells: CV-1 cells
T1 sequence (Q07869 1-468): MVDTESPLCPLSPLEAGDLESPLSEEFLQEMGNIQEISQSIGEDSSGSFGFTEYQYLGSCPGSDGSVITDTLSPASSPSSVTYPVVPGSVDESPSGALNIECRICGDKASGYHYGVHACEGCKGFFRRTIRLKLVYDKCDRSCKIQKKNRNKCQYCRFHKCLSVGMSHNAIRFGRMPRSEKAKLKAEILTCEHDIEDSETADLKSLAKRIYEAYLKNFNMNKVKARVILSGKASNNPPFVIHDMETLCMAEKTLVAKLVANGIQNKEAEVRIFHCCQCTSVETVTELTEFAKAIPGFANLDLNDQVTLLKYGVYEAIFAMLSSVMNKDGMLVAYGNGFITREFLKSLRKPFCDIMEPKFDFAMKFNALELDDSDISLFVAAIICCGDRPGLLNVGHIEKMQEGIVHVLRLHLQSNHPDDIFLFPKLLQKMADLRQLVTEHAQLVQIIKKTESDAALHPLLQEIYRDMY
Description: PPAR receptor agonist activity may be determined by conventional screening methods known to the skilled in the art. For example, methods described in U.S. Patent Application Publication No. 2007/0054907, 2008/0262047 and U.S. Pat. No. 7,314,879, which are incorporated by reference in their entireties.
The table summarize the results of studies performed in transfected CV-1 cells with three different lots of Compound of Example 11. […].

CCc1oc(-c2ccc(OC)cc2)nc1CCOc1ccc2c(c1)CC[C@H]2CC(=O)[O-].[Na+] [Example 11, Sodium (S)-2-(5-(2-(5-ethyl-2-(4-methoxyphenyl)oxazol-4-yl)ethoxy)-2,3-dihydro-1H-inden-1-yl)acetate]
ALFF-IIPL, Change from Baseline EOT, Mean ([1]; 3 mg): −0.0635 | ALFF-IIPL, Change from Baseline EOT, Median ([1]; 3 mg): −0.0393 | ALFF-rIPL, Change from Baseline EOT, Mean ([1]; 3 mg): −0.0493 | ALFF-rIPL, Change from Baseline EOT, Median ([1]; 3 mg): −0.0587 | ReHo-IIPL, Change from Baseline EOT, Mean ([1]; 3 mg): −0.0694 | ReHo-IIPL, Change from Baseline EOT, Median ([1]; 3 mg): −0.0822 | ReHo-IPPC-PreC, Change from Baseline EOT, Mean ([1]; 3 mg): −0.0665 | ReHo-IPPC-PreC, Change from Baseline EOT, Median ([1]; 3 mg): −0.0428 | ReHo-rIPL, Change from Baseline EOT, Mean ([1]; 3 mg): −0.0694 | ReHo-rIPL, Change from Baseline EOT, Median ([1]; 3 mg): −0.0822 | ReHo-rPPC-Prec, Change from Baseline EOT, Mean ([1]; 3 mg): −0.0390 | ReHo-rPPC-Prec, Change from Baseline EOT, Median ([1]; 3 mg): −0.0081 | fALFF-IIPL, Change from Baseline EOT, Mean ([1]; 3 mg): −0.0296 | fALFF-IIPL, Change from Baseline EOT, Median ([1]; 3 mg): −0.0311 | fALFF-IPPC-PreC, Change from Baseline EOT, Mean ([1]; 3 mg): 0.0121 | fALFF-IPPC-PreC, Change from Baseline EOT, Median ([1]; 3 mg): 0.0019 | fALFF-rIPL, Change from Baseline EOT, Mean ([1]; 3 mg): −0.0342 | fALFF-rIPL, Change from Baseline EOT, Median ([1]; 3 mg): −0.0327 | fALFF-rPPC-PreC, Change from Baseline EOT, Mean ([1]; 3 mg): −0.0080 | fALFF-rPPC-PreC, Change from Baseline EOT, Median ([1]; 3 mg): −0.0229 | ALFF-IIPL, Change from Baseline EOT, Mean ([1]; 10 mg): 0.0104 | ALFF-IIPL, Change from Baseline EOT, Median ([1]; 10 mg): 0.0273 | ALFF-rIPL, Change from Baseline EOT, Mean ([1]; 10 mg): −0.0276 | ALFF-rIPL, Change from Baseline EOT, Median ([1]; 10 mg): −0.0278 | ReHo-IIPL, Change from Baseline EOT, Mean ([1]; 10 mg): 0.0147 | ReHo-IIPL, Change from Baseline EOT, Median ([1]; 10 mg): −0.0201 | ReHo-IPPC-PreC, Change from Baseline EOT, Mean ([1]; 10 mg): 0.0237 | ReHo-IPPC-PreC, Change from Baseline EOT, Median ([1]; 10 mg): 0.0523 | ReHo-rIPL, Change from Baseline EOT, Mean ([1]; 10 mg): 0.0147 | ReHo-rIPL, Change from Baseline EOT, Median ([1]; 10 mg): −0.0201 | ReHo-rPPC-Prec, Change from Baseline EOT, Mean ([1]; 10 mg): −0.0663 | ReHo-rPPC-Prec, Change from Baseline EOT, Median ([1]; 10 mg): 0.0153 | fALFF-IIPL, Change from Baseline EOT, Mean ([1]; 10 mg): 0.0164 | fALFF-IIPL, Change from Baseline EOT, Median ([1]; 10 mg): 0.0097 | fALFF-IPPC-PreC, Change from Baseline EOT, Mean ([1]; 10 mg): 0.0068 | fALFF-IPPC-PreC, Change from Baseline EOT, Median ([1]; 10 mg): −0.0068 | fALFF-rIPL, Change from Baseline EOT, Mean ([1]; 10 mg): 0.0061 | fALFF-rIPL, Change from Baseline EOT, Median ([1]; 10 mg): 0.0096 | fALFF-rPPC-PreC, Change from Baseline EOT, Mean ([1]; 10 mg): 0.0084 | fALFF-rPPC-PreC, Change from Baseline EOT, Median ([1]; 10 mg): −0.0028 | ALFF-IIPL, Change from Baseline EOT, Mean ([1]; 30 mg): −0.0102 | ALFF-IIPL, Change from Baseline EOT, Median ([1]; 30 mg): −0.0031 | ALFF-rIPL, Change from Baseline EOT, Mean ([1]; 30 mg): 0.0346 | ALFF-rIPL, Change from Baseline EOT, Median ([1]; 30 mg): 0.0332 | ReHo-IIPL, Change from Baseline EOT, Mean ([1]; 30 mg): −0.0249 | ReHo-IIPL, Change from Baseline EOT, Median ([1]; 30 mg): −0.0135 | ReHo-IPPC-PreC, Change from Baseline EOT, Mean ([1]; 30 mg): −0.0369 | ReHo-IPPC-PreC, Change from Baseline EOT, Median ([1]; 30 mg): −0.0398 | ReHo-rIPL, Change from Baseline EOT, Mean ([1]; 30 mg): −0.0249 | ReHo-rIPL, Change from Baseline EOT, Median ([1]; 30 mg): −0.0135 | ReHo-rPPC-Prec, Change from Baseline EOT, Mean ([1]; 30 mg): −0.0895 | ReHo-rPPC-Prec, Change from Baseline EOT, Median ([1]; 30 mg): −0.1176 | fALFF-IIPL, Change from Baseline EOT, Mean ([1]; 30 mg): −0.0107 | fALFF-IIPL, Change from Baseline EOT, Median ([1]; 30 mg): −0.0034 | fALFF-IPPC-PreC, Change from Baseline EOT, Mean ([1]; 30 mg): −0.0132 | fALFF-IPPC-PreC, Change from Baseline EOT, Median ([1]; 30 mg): −0.0141 | fALFF-rIPL, Change from Baseline EOT, Mean ([1]; 30 mg): 0.0023 | fALFF-rIPL, Change from Baseline EOT, Median ([1]; 30 mg): 0.0001 | fALFF-rPPC-PreC, Change from Baseline EOT, Mean ([1]; 30 mg): −0.0007 | fALFF-rPPC-PreC, Change from Baseline EOT, Median ([1]; 30 mg): −0.0133 | ALFF-IIPL, Change from Baseline EOT, Mean ([1]; 90 mg): −0.0401 | ALFF-IIPL, Change from Baseline EOT, Median ([1]; 90 mg): −0.0560 | ALFF-rIPL, Change from Baseline EOT, Mean ([1]; 90 mg): −0.1089 | ALFF-rIPL, Change from Baseline EOT, Median ([1]; 90 mg): −0.0671 | ReHo-IIPL, Change from Baseline EOT, Mean ([1]; 90 mg): −0.0062 | ReHo-IIPL, Change from Baseline EOT, Median ([1]; 90 mg): −0.0121 | ReHo-IPPC-PreC, Change from Baseline EOT, Mean ([1]; 90 mg): 0.0194 | ReHo-IPPC-PreC, Change from Baseline EOT, Median ([1]; 90 mg): 0.0566 | ReHo-rIPL, Change from Baseline EOT, Mean ([1]; 90 mg): −0.0062 | ReHo-rIPL, Change from Baseline EOT, Median ([1]; 90 mg): −0.0121 | ReHo-rPPC-Prec, Change from Baseline EOT, Mean ([1]; 90 mg): −0.0041 | ReHo-rPPC-Prec, Change from Baseline EOT, Median ([1]; 90 mg): 0.0177 | fALFF-IIPL, Change from Baseline EOT, Mean ([1]; 90 mg): −0.0350 | fALFF-IIPL, Change from Baseline EOT, Median ([1]; 90 mg): −0.0211 | fALFF-IPPC-PreC, Change from Baseline EOT, Mean ([1]; 90 mg): −0.0167 | fALFF-IPPC-PreC, Change from Baseline EOT, Median ([1]; 90 mg): −0.0166 | fALFF-rIPL, Change from Baseline EOT, Mean ([1]; 90 mg): −0.0395 | fALFF-rIPL, Change from Baseline EOT, Median ([1]; 90 mg): −0.0313 | fALFF-rPPC-PreC, Change from Baseline EOT, Mean ([1]; 90 mg): −0.0118 | fALFF-rPPC-PreC, Change from Baseline EOT, Median ([1]; 90 mg): 0.0039 | Peak effect PPARα (human PPARα): 1.87 | maximal response, human alpha subtype (human PPARα): significantly reduced maximal response
